Experimental findings from patent US20180118648A1, “5-SUBSTITUTED-5-HYDROXY-5-ARYL-3-OXO-PENTANOATE DERIVATIVES AND THEIR ENANTIOPURE FORMS” (OKINAWA INSTITUTE OF SCIENCE AND TECHNOLOGY SCHOOL …, priority 2015, published 2018) are described below.

A word on the melting point: it is the temperature of the solid-liquid transition. Compound `CCOC(=O)/C=C(\C[C@@](O)(c1ccccc1)C(F)(F)F)N[C@H](C)c1ccccc1` [Compound 5a-1, (R)-ethyl 6,6,6,-trifluoro-5-hydroxy-5-phenyl-(((R)-1-phenyl)amino)hex-2-enoate] displayed a melting point of 126 °C.

Compound `CCOC(=O)/C=C(\C[C@@](O)(c1cccs1)C(F)(F)F)N[C@H](C)c1ccccc1` [Compound 5ac-1, (S)-ethyl 6,6,6-trifluoro-5-hydroxy-3-(((R)-1-phenylethyl)amino)-5-(thiophen-2-yl)hexa-2-enoate] displayed a melting point of 133 °C.
